Assay results published in the NIST ThermoML archive (doi:10.1016/j.jct.2010.05.011).

Tests used:
[1] = 101.33 kPa, Liquid; for speed of sound: Sing-around technique in a fixed-path interferometer; for mass density: Vibrating tube method; for viscosity: Capillary tube (Ostwald / Ubbelohde) method
[2] = refractive index (Na D-line) (dimensionless); details: 101.33 kPa, Liquid, Standard Abbe refractometry

CCOS(=O)(=O)[O-].CCc1cccc[n+]1CC [1,2-diethylpyridinium ethylsulfate]
Details | mass density, [1] [kg/m3] | refractive index, [2] | speed of sound, [1] [m/s] | viscosity, [1] [mPa·s]
293.15 K | 1223.6 | 1.5146 | 1759.3 | –
298.15 K | 1220.2 | 1.51328 | 1745.6 | 324.7
303.15 K | 1217 | 1.51192 | 1731.3 | 233.2
308.15 K | 1213.9 | 1.51057 | 1718.6 | 175.8
313.15 K | 1210.3 | 1.5092 | 1705.7 | 135.5
318.15 K | 1206.8 | 1.50788 | 1693 | 104
323.15 K | 1203.4 | 1.50648 | 1680.5 | 83.3
328.15 K | 1200.1 | 1.50513 | 1668.1 | 67.2
333.15 K | 1196.8 | 1.50376 | 1656.2 | 55
338.15 K | 1193.6 | 1.50239 | 1644.3 | 45.6
343.15 K | 1190.3 | 1.5009 | 1632.7 | 38.12

COS(=O)(=O)[O-].Cc1ccc[n+](C)c1 [1,3-dimethylpyridinium methyl sulfate]
Details | mass density, [1] [kg/m3] | refractive index, [2] | speed of sound, [1] [m/s] | viscosity, [1] [mPa·s]
293.15 K | 1305.87 | 1.5147 | 1834.9 | –
298.15 K | 1302.51 | 1.5133 | 1822.2 | 128.6
303.15 K | 1299.14 | 1.51184 | 1809.7 | 97.1
308.15 K | 1295.77 | 1.51051 | 1797.5 | 76.8
313.15 K | 1292.42 | 1.50911 | 1785.4 | 61.2
318.15 K | 1289.07 | 1.5077 | 1773.5 | 49.6
323.15 K | 1285.74 | 1.5062 | 1761.7 | 40.86
328.15 K | 1282.42 | 1.50472 | 1750 | 34.19
333.15 K | 1279.11 | 1.50331 | 1738.4 | 28.8
338.15 K | 1275.82 | 1.50193 | 1726.9 | 24.58
343.15 K | 1272.55 | 1.50046 | 1715.6 | 21.15

COS(=O)(=O)[O-].C[n+]1ccccc1 [1-methylpyridinium methylsulfate]
Details | mass density, [1] [kg/m3] | refractive index, [2] | speed of sound, [1] [m/s] | viscosity, [1] [mPa·s]
293.15 K | 1348.22 | 1.51431 | 1888.6 | –
298.15 K | 1344.83 | 1.51296 | 1876.4 | 116.2
303.15 K | 1341.44 | 1.51162 | 1864.4 | 91
308.15 K | 1338.07 | 1.51029 | 1852.6 | 73.1
313.15 K | 1334.71 | 1.50895 | 1840.9 | 59.7
318.15 K | 1331.35 | 1.50764 | 1829.4 | 49.3
323.15 K | 1328.01 | 1.50629 | 1817.9 | 41.29
328.15 K | 1324.69 | 1.50497 | 1806.5 | 35.41
333.15 K | 1321.38 | 1.50361 | 1795.2 | 30.22
338.15 K | 1318.09 | 1.50226 | 1784 | 26.16
343.15 K | 1314.82 | 1.5009 | 1772.8 | 22.77

CCc1cccc[n+]1C.COS(=O)(=O)[O-] [2-ethyl-1-methylpyridinium methyl sulfate]
Details | mass density, [1] [kg/m3] | refractive index, [2] | speed of sound, [1] [m/s] | viscosity, [1] [mPa·s]
293.15 K | 1288.3 | 1.52031 | 1869.2 | –
298.15 K | 1284.7 | 1.51902 | 1856 | 4559
303.15 K | 1281.3 | 1.5177 | 1842.4 | 3207
308.15 K | 1277.9 | 1.5164 | 1830.5 | 2329
313.15 K | 1274.49 | 1.51508 | 1818.4 | 1728
318.15 K | 1271.15 | 1.51374 | 1806.5 | 1293
323.15 K | 1267.6 | 1.51245 | 1794.9 | 1012
328.15 K | 1264.5 | 1.51115 | 1783 | 802
333.15 K | 1261.3 | 1.50982 | 1770.2 | 646
338.15 K | 1258.1 | 1.50852 | 1758.5 | 528
343.15 K | 1254 | 1.50722 | 1747 | 437
